Laboratory results as given in patent publication US10894777B2, “TG2 inhibitor piperazine compounds and uses thereof” (UNIVERSITY OF OTTAWA, priority 2016, dated 2021).

Legend:
[1] = test system: U87 cells; experiment: Agarose colony formation assay, U87 cells; assay type: cell-based, human; conditions: 10 μM, 2 weeks
Method: (§1) Agarose colony formation assay. Agarose colony formation assay was conducted as described (Horman, S. R. et al., J. Biomol. Screen 18(10):1298-308, 2013; Zhang, K. et al., Tumour Biol. 35(3):2537-48, 2014) using 6-well plates and 5,000 cells in each well. 10 μM NC9 or DMSO was added to every layer at the start of the experiments. 2 mL liquid MEM containing 10 μM NC9 or DMSO was used to cover the agarose and it was changed 3 times a week. Colony growth was monitored every day and at the end of 10-15 days, the colonies were fixed with 4% paraformaldehyde, stained with 0.005% crystal violet, washed with PBS twice and 40 random pictures were taken from each treatment group. A person blinded for the treatments measured the area of the colonies using ImageJ program and the volumes were calculated from the area data under the assumption that the colonies are perfect spheres. The volumes were used to compare the effect of NC9 on colony growth.

[2] = test system: GBM cells (U87 and T98G); experiment: EdU incorporation assay; assay type: cell-based, human; conditions: 24 h
Method: EdU Incorporation Assay. After treatment of cells seeded in PolyD-Lys coated coverslips, half of the media was replaced with 10 μM EdU in 10% FBS MEM. After 90 min, cells were fixed with 4% PFA and permeabilized with 0.5% Triton X-100. Detection of EdU was performed as directed in the Click-iT EdU Alexa 647 kit (Life Technologies). 1:2000 Hoechst dilution was used to stain nuclei. Randomized pictures were taken for each group and a person blinded for the treatments counted the EdU and Hoechst positive cells.

[3] = test system: T98G cells; experiment: Agarose colony formation assay, T98G cells; assay type: cell-based, human; conditions: 10 μM, 2 weeks
Method: as §1

[4] = molecular target: T1, TG2 (Homo sapiens, UniProt P21980); experiment: In situ transglutaminase assay, ionomycin-activated, GBM cell lines; assay type: cell-based; set-up: endogenous in cells; conditions: 10 μM; for ionomycin-activated in situ transamidating activity of TG2: U87 cells, 1 h pretreatment, 1 μM ionomycin 3 h
T1 sequence (P21980 1-687): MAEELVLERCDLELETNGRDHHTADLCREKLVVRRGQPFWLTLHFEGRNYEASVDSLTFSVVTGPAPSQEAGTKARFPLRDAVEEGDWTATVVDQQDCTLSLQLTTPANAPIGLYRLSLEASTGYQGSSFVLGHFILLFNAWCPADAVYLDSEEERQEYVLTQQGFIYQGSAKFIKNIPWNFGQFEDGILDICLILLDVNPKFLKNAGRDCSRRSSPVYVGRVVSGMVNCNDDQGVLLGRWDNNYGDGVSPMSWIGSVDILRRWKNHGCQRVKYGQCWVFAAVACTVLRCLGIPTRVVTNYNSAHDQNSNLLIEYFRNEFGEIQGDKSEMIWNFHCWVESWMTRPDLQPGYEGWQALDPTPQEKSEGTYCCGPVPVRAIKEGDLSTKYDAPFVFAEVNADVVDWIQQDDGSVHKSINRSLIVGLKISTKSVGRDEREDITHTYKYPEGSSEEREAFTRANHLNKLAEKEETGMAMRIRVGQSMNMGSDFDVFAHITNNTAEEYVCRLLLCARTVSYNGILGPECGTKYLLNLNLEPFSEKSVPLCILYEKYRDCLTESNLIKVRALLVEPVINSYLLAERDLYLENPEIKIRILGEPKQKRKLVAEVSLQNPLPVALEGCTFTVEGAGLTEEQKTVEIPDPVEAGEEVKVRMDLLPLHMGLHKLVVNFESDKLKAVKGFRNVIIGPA
Method: In situ transglutaminase assay. In situ transamidating activity measurement was conducted as described previously (Gundemir, S. and Johnson, G. V., PLoS ONE 4(7):e6123, 2009) with slight modifications. […] In a high protein binding 96-well plate (Falcon), 10 μg of protein was loaded in a total of 50 μL homogenization buffer and the plate was incubated at 4° C. overnight. The next day, 200 μL of blocking buffer (5% BSA, 0.01% Tween 20 in borate saline [100 mM boric acid, 20 mM Na-borate and 0.76 mM NaCl]) was added to each sample and the plate was incubated at 37° C. for 1 h. Each well was then rinsed 3 times with rinsing buffer (1% BSA, 0.01% Tween 20 in borate saline) and incubated with 1 μg/μL Horseradish peroxidase conjugated neutravidin (Pierce) in a total of 100 μL rinsing buffer at room temperature for 1 h. […] After 20 minutes, the reaction was stopped by addition of 50 μL of 1 M sulfuric acid and read at 493 nm wavelength.

[5] = test system: TS543 neurospheres; experiment: Neurosphere growth, TS543 (mesenchymal); assay type: cell-based, human; conditions: 25 μM, 2 weeks
Excerpt: Neurosphere cultures. TS543, TS565 and TS676, which represent the mesenchymal, proneural and classical glioblastoma subtypes respectively, based on transcriptomic and genomic analysis, were obtained from C. Brennan through the Monoclonal Antibody Core Facility at Memorial Sloan Kettering Cancer Center (Brennan, C. et al., PLoS One 4(11):e7752, 2009; Pyonteck, S. M. et al., Nature Med. 19(10):1264-72, 2013; Rohle, D. et al., Science 340(6132):626-30, 2013) and maintained in NeuroCult™ NS-A Proliferation Kit (Human) (Stem Cell Technologies) according to manufacturer's instructions. (NeuroCult Medium was supplemented with 20 ng/mL FGF, 50 ng/mL EGF and 0.0002% Heparin). To prevent neurosphere attachment to the bottom of the cell culture plates, Poly 2-hydroxyethyl methacrylate (PHM) was used. 6-well plates were coated with 1 mL/well of 1% PHM in ethanol (w/v). The plates were air dried in a sterile environment overnight and washed once with PBS and they were kept in the fridge in a sterile environment until use. For passaging, neurospheres were triturated according to instructions and 5,000 cells were seeded in each well in 2 mL medium. For treatments with TG2 inhibitors, cells were inoculated in medium containing 25 μM TG2 inhibitor or DMSO control. 200 μL of medium containing the 25 μM TG2 inhibitor or DMSO was added every other day. At the end of 2 weeks, 20-50 random microscopic images were captured for each group. The average volume of each sphere image was determined using Image J by a person blinded for neurosphere lines and treatments and volumes were calculated from the area data and used for comparison.

SMILES	colony growth, U87 [1]	proliferation (EdU incorporation) [2]	colony growth, T98G [3]	ionomycin-activated in situ transamidating activity of TG2 [4]	sphere growth, TS543 [5]	in situ transamidation activity of TG2 induced by ionomycin ([4]; U87, 1321N, U251, T98G cell lines)
C=CC(=O)NCCCC[C@H](NC(=O)OCc1ccccc1)C(=O)N1CCN(C(=O)c2cc3ccc(O)cc3oc2=O)CC1 [VA5, (S)-Benzyl(6-acrylamido-1-(4-(7-hydroxy-2-oxo-2H-chromene-3-carbonyl)piperazin-1-yl)-1-oxohexan-2-yl)carbamate]	promoted it	no effect	did not suppress colony growth	inhibit ionomycin-activated transamidating activity of TG2	promoted growth	
C=CC(=O)NCCCC[C@H](NC(=O)OCc1ccccc1)C(=O)N1CCN(S(=O)(=O)c2cccc3c(N(C)C)cccc23)CC1 [VA4, (S)-benzyl(6-acrylamido-1-(4-((5-(dimethylamino)naphthalen-1-yl)sulfonyl)piperazin-1-yl)-1-oxohexan-2-yl)carbamate]	inhibited colony growth	slowed down the proliferation	inhibited colony growth	inhibit ionomycin-activated transamidating activity of TG2	suppressed sphere growth	
C=CC(=O)NCCCC[C@H](NC(=O)OCc1ccccc1)C(=O)NCCOCCOCCNS(=O)(=O)c1cccc2c(N(C)C)cccc12 [NC9]	significantly reduced the growth	slowed down the proliferation	significantly reduced the growth	inhibit ionomycin-activated transamidating activity of TG2	suppressed sphere growth	completely inhibited
